Results published in article PMC10140954, “Thiolactones and Δ^8,9-Pregnene Steroids from the Marine-Derived Fungus Meira sp. 1210CH-42 and Their α-Glucosidase Inhibitory Activity” (Marine Drugs, 2023).

Target: α-glucosidase
Test: α-glucosidase inhibition assay (pNPG substrate, absorbance at 405 nm)
Assay type: biochemical
Conditions: for IC50: 0.1 M PBS pH 7.4, 37 °C, α-glucosidase 0.2 U/mL, 5 mM pNPG, triplicate, read-out: α-Glucosidase inhibitory activity, IC50 (50% inhibitory concentration)
Procedure: All the assays were carried out under 0.1 M PBS buffer (pH 7.4, Sigma). The samples (10 mM) were dissolved with DMSO (Sigma) and diluted into gradient concentrations with PBS buffer. The pre-reaction mixture consisted of the 130 μL sample with 30 μL α-glucosidase solution (0.2 U/mL, Sigma) and shaken well, then added to a 96-well plate and placed at 37 °C for 10 min in an incubator. Subsequently, 40 μL of 5 mM p-nitrophenyl-α-D-glucopyranoside (pNPG, TCI) was added and further incubated at 37 °C for 20 min. Finally, the α-glucosidase inhibitory activity was determined by measuring the release of […] at 405 nm of the microplate reader. The negative control was prepared by adding PBS buffer instead of the sample in the same way as the test. The blank was prepared by adding PBS buffer instead of pNPG using the same method.

In the case of `CC(=O)N[C@@H]1C(=O)SC[C@@H]1C` [Compound 1, 2S-acetamide-3R-methyl-thiolactone], the IC50 is reported as > 400 µM and the “α-glucosidase inhibitory activity in words” value (at a concentration of 400 μM) is reported as “weak inhibitory activity”.
Work on `CC(=O)N[C@H]1C(=O)SC[C@@H]1C` [Compound 2, 2R-acetamide-3R-methyl-thiolactone] yielded an IC50 of 148 µM.
`CC(=O)[C@H]1CC[C@H]2C3=C(CC[C@]12C)[C@@]1(C)CC[C@H](O)C[C@@H]1CC3` [Compound 3, Δ^8,9-3β-hydroxy-5α-17-acetyl steroid] showed an IC50 of 280 µM.
`CC(=O)C1CCC2C3=C(CCC12C)C1(C)CCC(O)CC1CC3` (stereo not drawn) [Compound 4, Δ^8,9-3α-hydroxy-5α-17-acetyl steroid] gave an IC50 of 86 µM.
